Assay results taken from ChEMBL document CHEMBL1201862, “PubChem BioAssay data set” (2004).
Activity calls are given as the source filed them. No rule for the calls is given here.

Assays:
Assay type in all cases: functional
[1] = biological target: STE20-like serine/threonine-protein kinase (Homo sapiens, UniProt Q9H2G2)
[2] = biological target: Serine/threonine-protein kinase D3 (Homo sapiens, UniProt O94806);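 also: determined within a kinase panel screen, with PRKCN as the panel member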
[3] = biological target: Tyrosine-protein kinase JAK2 (Homo sapiens, UniProt O60674);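 also: JAK2 tested as one member of a kinase panel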
Tyrosine-protein kinase JAK2, sequence (O60674 whole entry): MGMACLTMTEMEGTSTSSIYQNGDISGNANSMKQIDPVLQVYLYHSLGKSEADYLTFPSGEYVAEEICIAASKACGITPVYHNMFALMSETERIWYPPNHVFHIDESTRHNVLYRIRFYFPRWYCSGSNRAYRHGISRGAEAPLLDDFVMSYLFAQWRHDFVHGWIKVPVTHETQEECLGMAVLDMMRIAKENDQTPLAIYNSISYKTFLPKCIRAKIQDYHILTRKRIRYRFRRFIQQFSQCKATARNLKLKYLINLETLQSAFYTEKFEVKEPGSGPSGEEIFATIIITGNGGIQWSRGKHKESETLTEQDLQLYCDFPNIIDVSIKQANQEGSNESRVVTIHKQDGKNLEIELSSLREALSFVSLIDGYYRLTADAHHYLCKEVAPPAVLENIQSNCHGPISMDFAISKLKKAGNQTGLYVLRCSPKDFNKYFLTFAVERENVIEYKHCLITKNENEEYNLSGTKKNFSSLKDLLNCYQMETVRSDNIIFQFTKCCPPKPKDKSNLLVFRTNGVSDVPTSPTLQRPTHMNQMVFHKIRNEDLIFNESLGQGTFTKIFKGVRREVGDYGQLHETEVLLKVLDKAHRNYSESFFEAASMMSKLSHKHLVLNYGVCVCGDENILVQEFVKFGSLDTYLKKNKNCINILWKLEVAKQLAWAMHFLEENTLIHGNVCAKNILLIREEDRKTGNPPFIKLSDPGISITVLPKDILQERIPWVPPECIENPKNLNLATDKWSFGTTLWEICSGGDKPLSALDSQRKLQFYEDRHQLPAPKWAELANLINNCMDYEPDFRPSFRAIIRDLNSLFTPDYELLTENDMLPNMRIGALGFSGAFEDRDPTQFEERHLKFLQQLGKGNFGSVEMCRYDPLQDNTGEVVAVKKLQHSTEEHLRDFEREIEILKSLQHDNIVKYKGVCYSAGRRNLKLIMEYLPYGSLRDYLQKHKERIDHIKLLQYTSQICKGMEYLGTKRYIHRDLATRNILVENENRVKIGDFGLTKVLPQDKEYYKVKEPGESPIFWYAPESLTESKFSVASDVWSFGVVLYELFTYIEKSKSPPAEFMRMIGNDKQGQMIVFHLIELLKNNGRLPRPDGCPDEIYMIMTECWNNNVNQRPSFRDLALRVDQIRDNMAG

[4] = biological target: Cyclin-dependent kinase 5 (Homo sapiens, UniProt Q00535);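 also: CDK5 measured as one member of a kinase profiling panel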
Cyclin-dependent kinase 5, sequence (Q00535 whole entry): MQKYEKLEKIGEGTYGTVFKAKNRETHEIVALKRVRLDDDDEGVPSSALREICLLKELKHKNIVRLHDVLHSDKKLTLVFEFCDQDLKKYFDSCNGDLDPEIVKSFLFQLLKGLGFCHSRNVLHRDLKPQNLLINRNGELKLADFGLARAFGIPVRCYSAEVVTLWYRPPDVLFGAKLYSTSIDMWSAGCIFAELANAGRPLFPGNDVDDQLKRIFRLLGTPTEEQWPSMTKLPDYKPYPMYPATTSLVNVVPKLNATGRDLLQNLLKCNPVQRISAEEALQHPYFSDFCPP

[5] = biological target: Mitogen-activated protein kinase 9 (Homo sapiens, UniProt P45984);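 also: value from a kinome panel profiling assay, MAPK9 panel entry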
Mitogen-activated protein kinase 9, sequence (P45984 whole entry): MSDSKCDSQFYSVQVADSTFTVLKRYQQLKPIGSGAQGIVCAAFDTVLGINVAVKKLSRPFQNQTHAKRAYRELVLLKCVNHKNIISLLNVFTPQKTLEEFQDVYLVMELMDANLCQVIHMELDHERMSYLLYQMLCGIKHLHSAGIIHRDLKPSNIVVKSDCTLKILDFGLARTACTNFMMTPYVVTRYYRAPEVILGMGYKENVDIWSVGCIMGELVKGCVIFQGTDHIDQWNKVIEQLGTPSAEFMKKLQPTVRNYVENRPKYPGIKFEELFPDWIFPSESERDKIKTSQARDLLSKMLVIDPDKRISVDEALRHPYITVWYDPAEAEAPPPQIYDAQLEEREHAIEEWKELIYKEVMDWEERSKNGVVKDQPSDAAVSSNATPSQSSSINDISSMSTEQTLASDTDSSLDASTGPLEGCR

Serine/threonine-protein kinase D3, sequence (O94806 whole entry): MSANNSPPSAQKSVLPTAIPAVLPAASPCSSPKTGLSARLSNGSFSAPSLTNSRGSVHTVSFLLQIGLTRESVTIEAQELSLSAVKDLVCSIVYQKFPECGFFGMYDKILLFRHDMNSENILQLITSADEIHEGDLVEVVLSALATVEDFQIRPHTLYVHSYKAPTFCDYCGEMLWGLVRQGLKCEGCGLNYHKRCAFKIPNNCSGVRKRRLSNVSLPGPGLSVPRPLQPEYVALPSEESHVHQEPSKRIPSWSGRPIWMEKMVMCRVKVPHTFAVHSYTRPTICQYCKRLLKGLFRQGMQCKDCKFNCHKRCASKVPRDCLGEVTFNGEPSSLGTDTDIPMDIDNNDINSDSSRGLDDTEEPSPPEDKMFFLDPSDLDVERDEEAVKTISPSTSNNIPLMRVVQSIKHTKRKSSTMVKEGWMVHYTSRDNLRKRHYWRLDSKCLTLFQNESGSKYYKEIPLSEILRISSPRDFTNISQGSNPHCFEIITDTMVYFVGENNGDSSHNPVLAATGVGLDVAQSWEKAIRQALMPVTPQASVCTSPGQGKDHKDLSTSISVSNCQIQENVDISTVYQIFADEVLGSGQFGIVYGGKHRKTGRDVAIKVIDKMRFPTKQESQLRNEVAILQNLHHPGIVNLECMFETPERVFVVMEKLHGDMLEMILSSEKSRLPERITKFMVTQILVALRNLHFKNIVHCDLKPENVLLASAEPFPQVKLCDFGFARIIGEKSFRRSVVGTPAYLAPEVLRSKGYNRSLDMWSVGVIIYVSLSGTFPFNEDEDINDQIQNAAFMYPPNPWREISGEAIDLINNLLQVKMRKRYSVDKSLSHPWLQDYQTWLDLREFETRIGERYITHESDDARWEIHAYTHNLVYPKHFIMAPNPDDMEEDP
STE20-like serine/threonine-protein kinase, sequence (Q9H2G2 whole entry): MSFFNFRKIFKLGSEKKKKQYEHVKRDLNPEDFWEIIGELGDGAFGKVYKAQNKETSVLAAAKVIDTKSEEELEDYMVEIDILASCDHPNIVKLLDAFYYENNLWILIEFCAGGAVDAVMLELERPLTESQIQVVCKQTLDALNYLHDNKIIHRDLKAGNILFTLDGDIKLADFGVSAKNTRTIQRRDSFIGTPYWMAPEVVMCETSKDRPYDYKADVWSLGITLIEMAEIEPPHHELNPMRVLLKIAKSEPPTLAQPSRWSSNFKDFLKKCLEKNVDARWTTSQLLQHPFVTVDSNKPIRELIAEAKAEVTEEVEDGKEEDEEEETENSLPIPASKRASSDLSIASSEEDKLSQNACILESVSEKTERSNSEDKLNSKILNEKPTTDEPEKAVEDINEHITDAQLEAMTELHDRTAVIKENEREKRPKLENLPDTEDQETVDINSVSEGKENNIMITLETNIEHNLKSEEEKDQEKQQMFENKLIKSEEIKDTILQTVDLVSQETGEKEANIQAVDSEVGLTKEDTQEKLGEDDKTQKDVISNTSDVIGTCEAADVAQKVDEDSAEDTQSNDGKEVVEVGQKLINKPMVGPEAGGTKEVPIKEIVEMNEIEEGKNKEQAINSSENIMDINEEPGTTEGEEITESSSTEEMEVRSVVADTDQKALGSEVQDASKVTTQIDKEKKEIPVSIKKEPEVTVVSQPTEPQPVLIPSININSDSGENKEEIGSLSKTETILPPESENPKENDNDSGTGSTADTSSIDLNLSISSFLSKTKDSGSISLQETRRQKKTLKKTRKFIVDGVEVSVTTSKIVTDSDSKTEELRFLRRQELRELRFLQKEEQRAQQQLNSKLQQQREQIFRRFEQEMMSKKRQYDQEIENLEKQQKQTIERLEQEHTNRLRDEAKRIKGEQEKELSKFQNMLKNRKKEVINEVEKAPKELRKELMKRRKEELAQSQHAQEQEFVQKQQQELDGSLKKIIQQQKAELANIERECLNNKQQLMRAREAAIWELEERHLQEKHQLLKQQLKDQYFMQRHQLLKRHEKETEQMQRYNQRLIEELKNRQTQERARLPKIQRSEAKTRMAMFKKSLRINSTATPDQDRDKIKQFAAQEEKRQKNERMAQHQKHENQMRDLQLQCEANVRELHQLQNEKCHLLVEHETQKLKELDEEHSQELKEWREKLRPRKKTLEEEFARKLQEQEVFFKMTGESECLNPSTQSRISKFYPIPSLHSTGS

Ki [1]: 1580 nM (active) | Ki [2]: 2510 nM (active) | Ki [3]: > 1580 nM (inactive) | Ki [4]: > 10000 nM (inactive) | Ki [5]: > 3980 nM (inactive)
Structure (SMILES): CCn1c(-c2nonc2N)nc2cnc(Oc3cccc(NC(=O)c4ccc(OCCN5CCOCC5)cc4)c3)cc21 [GSK-269962A]
